Measurements taken from ChEMBL document CHEMBL1143092, “Identification of novel benzimidazole series of potent and selective ORL1 antagonists” (Bioorg Med Chem Lett, 2008).

Columns and labels:
Mu-type opioid receptor = Mu-type opioid receptor (Homo sapiens, UniProt P35372); test: Displacement of [3H]diprenorphin from human cloned mu opioid receptor expressed in CHO cell membrane; format: cell membranes
Nociceptin receptor [1] = molecular target: T1, Nociceptin receptor (Homo sapiens, UniProt P41146); test: Displacement of [125I]Tyr14-NC from human ORL1 receptor expressed in CHO cell membrane; format: cell membranes
T1 sequence (P41146 whole entry): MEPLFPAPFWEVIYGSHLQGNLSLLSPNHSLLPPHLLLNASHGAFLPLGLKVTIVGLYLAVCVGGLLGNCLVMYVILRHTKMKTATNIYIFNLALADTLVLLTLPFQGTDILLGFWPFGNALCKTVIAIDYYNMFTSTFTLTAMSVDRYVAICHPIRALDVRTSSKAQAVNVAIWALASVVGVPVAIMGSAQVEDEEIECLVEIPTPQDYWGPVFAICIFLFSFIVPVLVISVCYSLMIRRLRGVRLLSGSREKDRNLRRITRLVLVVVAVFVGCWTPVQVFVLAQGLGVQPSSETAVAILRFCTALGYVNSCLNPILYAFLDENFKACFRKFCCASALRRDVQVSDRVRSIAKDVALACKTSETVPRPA

Nociceptin receptor [2] = molecular target: T1, Nociceptin receptor; test: Antagonist activity at human ORL1 receptor expressed in CHO cell membrane by [35S]GTP-gamma-S binding assay; format: functional, cell membranes
[3] = molecular target: Kappa-type opioid receptor (Homo sapiens, UniProt P41145); test: Displacement of [3H]U-69593 from human cloned kappa opioid receptor expressed in CHO cell membrane; format: cell membranes
Sequence of Kappa-type opioid receptor (P41145 whole entry): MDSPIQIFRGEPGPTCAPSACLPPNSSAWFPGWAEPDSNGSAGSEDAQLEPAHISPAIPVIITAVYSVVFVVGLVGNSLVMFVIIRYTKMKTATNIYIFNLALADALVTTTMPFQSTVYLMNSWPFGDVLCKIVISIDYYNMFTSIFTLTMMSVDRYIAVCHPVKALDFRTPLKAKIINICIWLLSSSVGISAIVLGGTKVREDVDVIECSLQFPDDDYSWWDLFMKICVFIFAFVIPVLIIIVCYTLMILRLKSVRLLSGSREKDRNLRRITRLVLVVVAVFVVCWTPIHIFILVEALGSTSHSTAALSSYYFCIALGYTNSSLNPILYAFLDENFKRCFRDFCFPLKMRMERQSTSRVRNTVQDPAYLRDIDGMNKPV

Liver microsomes = test: Metabolic stability in human liver microsomes; format: ADME, Microsome
[4] = molecular target: Delta-type opioid receptor (Homo sapiens, UniProt P41143); test: Displacement of [3H]naltrindole from human cloned delta opioid receptor expressed in CHO cell membrane; format: cell membranes
Sequence of Delta-type opioid receptor (P41143 whole entry): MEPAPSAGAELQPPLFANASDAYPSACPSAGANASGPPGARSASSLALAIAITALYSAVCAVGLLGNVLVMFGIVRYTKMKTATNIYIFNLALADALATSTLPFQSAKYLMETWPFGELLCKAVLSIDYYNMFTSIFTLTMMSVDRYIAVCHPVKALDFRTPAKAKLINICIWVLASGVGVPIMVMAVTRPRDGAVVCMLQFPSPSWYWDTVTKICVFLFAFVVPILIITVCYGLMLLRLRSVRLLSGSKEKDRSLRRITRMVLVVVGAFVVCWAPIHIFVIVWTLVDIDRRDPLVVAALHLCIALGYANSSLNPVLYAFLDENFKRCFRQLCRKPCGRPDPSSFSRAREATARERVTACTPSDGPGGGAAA

Sequence of Mu-type opioid receptor (P35372 whole entry): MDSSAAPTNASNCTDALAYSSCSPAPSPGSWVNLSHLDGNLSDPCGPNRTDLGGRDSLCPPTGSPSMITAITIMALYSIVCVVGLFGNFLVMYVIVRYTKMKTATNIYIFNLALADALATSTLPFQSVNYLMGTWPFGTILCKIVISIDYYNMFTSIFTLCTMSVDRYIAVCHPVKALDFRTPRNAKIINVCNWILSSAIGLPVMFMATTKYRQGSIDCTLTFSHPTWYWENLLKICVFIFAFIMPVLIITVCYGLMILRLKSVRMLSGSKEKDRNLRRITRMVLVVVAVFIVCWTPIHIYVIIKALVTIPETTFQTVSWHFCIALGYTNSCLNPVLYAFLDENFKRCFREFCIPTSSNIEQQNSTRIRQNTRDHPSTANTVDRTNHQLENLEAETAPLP

| Structure (SMILES) | IC50 (Mu-type opioid receptor) | IC50 (Nociceptin receptor [1]) | IC50 (Nociceptin receptor [2]) | IC50 [3] | Stability (Liver microsomes) | IC50 [4] |
| --- | --- | --- | --- | --- | --- | --- |
| CC(C)(C)Sc1nc2cc(Cl)c(N3CCN(CCO)CC3)cc2[nH]1 | 4400 nM | 17 nM | 21 nM | 120 nM |  |  |
| [O-][S+](Cc1cccc(Cl)c1Cl)c1nc2cc(F)c(N3CCNCC3)cc2[nH]1 (centres undefined) |  | 2900 nM |  |  |  |  |
| Fc1cc2nc(SCc3ccccc3)[nH]c2cc1N1CCNCC1 |  | 140 nM |  |  |  |  |
| CCC(CC)Sc1nc2ccc(N3CCNCC3)cc2[nH]1 |  | 320 nM |  |  |  |  |
| Fc1ccc(CSc2nc3cc(F)c(N4CCN(CC5CCCCCCC5)CC4)cc3[nH]2)cc1 |  | > 10000 nM |  |  |  |  |
| CCC(CC)Sc1nc2cc(Cl)c(N3CCN(CC)CC3)cc2[nH]1 |  | 10 nM | 3.9 nM |  | 31% |  |
| CC1(Sc2nc3cc(Cl)c(N4CCN(CCO)CC4)cc3[nH]2)CCCCC1 | 1400 nM | 1.8 nM | 1.8 nM | 88 nM |  |  |
| CCC(CC)Sc1nc2cc(C#N)c(N3CCNCC3)cc2[nH]1 |  | 15 nM | 78 nM |  |  |  |
| CCC(C)(C)Sc1nc2cc(Cl)c(N3CCN(CCO)CC3)cc2[nH]1 | 3500 nM | 5.6 nM | 2.5 nM | 160 nM |  |  |
| CCC(CC)Sc1nc2cc(Cl)c(N3CCN(CCO)CC3)cc2[nH]1 | 3100 nM | 9.7 nM | 3.3 nM | 60 nM | 51% | > 1000 nM |
| Fc1cc2nc(SCc3cccc(Cl)c3Cl)[nH]c2cc1N1CCNCC1 |  | 6 nM | 140 nM |  |  |  |
| Fc1cc2nc(SCc3ccccc3Cl)[nH]c2cc1N1CCNCC1 |  | 23 nM | 380 nM |  |  |  |
| CSc1nc2cc(F)c(N3CCNCC3)cc2[nH]1 |  | 2900 nM |  |  |  |  |
| Cc1cccc(CSc2nc3cc(F)c(N4CCNCC4)cc3[nH]2)c1 |  | 180 nM |  |  |  |  |
| CC(C)Sc1nc2cc(Cl)c(N3CCN(CCO)CC3)cc2[nH]1 | 3100 nM | 120 nM |  | 60 nM |  |  |
| CCC(C)(CC)Sc1nc2cc(Cl)c(N3CCN(CCO)CC3)cc2[nH]1 | 2800 nM | 1.2 nM | 0.66 nM | 170 nM |  | > 1000 nM |
| Fc1ccc(CSc2nc3cc(F)c(N4CCNCC4)cc3[nH]2)cc1 |  | 63 nM |  |  |  |  |
| Fc1cc2nc(SCC3CCCCC3)[nH]c2cc1N1CCNCC1 |  | 17 nM | 930 nM |  |  |  |
| CN1CCN(c2cc3[nH]c(SCc4ccc(F)cc4)nc3cc2F)CC1 |  | 910 nM |  |  |  |  |
| Cc1ccc(CSc2nc3cc(F)c(N4CCNCC4)cc3[nH]2)cc1 |  | 31 nM |  |  |  |  |
| CCC(CC)Sc1nc2cc(F)c(N3CCNCC3)cc2[nH]1 |  | 4.7 nM | 690 nM |  |  |  |
| Cc1ccccc1CSc1nc2cc(F)c(N3CCNCC3)cc2[nH]1 |  | 78 nM | 1700 nM |  |  |  |
| Fc1ccc(CSc2nc3cc(F)c(N4CCN(Cc5ccccc5)CC4)cc3[nH]2)cc1 |  | 8200 nM |  |  |  |  |
| OCCN1CCN(c2cc3[nH]c(SC4CCCCC4)nc3cc2Cl)CC1 | 520 nM | 20 nM | 20 nM | 31 nM |  |  |
| Fc1cc2nc(SCc3c(Cl)cccc3Cl)[nH]c2cc1N1CCNCC1 |  | 55 nM | 2700 nM |  |  |  |
| O=S(=O)(Cc1cccc(Cl)c1Cl)c1nc2cc(F)c(N3CCNCC3)cc2[nH]1 |  | 240 nM |  |  |  |  |
| CCC(CC)Sc1nc2cc(C(C)=O)c(N3CCNCC3)cc2[nH]1 |  | 3100 nM |  |  |  |  |
